Laboratory results as given in a melting point compilation (Tetko et al.; mined from patent text by program, amines drawn as free bases though some values may be those of a salt).

Compound	melting point
[N-]=[N+]=NS(=O)(=O)c1ccc(C(=O)Cl)cc1	68 °C
NC(=O)c1[nH]nnc1O	191 to 192 °C
CC(C)(C)SC1N(C(C(=O)OCc2ccc([N+](=O)[O-])cc2)C(=O)C(C)(C)C)C(=O)C1(C)C (stereo not drawn)	87.5 to 90.5 °C
Cc1ccnc2c([N+](=O)[O-])cc(F)cc12	139 to 141 °C
COc1cc2c(cc1OC)C(=O)C(Br)C2 (stereo not drawn)	159 to 160 °C
COC(=O)COc1ccc(Nc2cc(Nc3ccc(F)c(Cl)c3)ncn2)cc1	191 to 193 °C
CCn1cc(C(=O)O)c(=O)c2cn(C)nc21	273 to 275 °C
COc1ccc(-n2c(-c3ccc(-c4ccc(-c5nc6c7ccccc7c7ccccc7c6n5-c5ccc(OC)cc5)cc4)cc3)nc3c4ccccc4c4ccccc4c32)cc1	403 °C
O=C(Nc1cc(OCCCON=Cc2ccc(-c3ccccc3)cc2)ccc1C(=O)O)c1ccc(C(F)(F)F)cc1	206 to 207 °C
CCC(=O)NCC1CN=C(c2ccccc2F)c2cc(Cl)ccc2N1 (stereo not drawn)	131 to 133 °C
N#CC1(Nc2ccccc2)CCN(C2CCCc3ccccc32)CC1 (stereo not drawn)	152 to 153 °C
Cc1c(C)c2c(c(C)c1NS(C)(=O)=O)C(c1ccc(C(C)C)cc1)CO2 (stereo not drawn)	132 to 133 °C
CC(=O)Nc1c(OC(C)=O)cc(C(C)(C)C)cc1[N+](=O)[O-]	200 to 201 °C
CSc1nc2ccc(Br)cc2c2nn(-c3ccc(C)cc3)c(=O)n12	213 °C
CC(C)(C)c1cc(C(=O)O)c(Cl)c(C(=O)O)c1	250 °C
COC(=O)c1sc(C)c(N)c1C	88 to 89 °C
Cc1cc(O)c2c(c1O)C(=O)c1ccccc1C2=O	177 to 178 °C

Continued, values first:

melting point	Compound
67 to 69 °C	OCCCc1cn(-c2ccc(F)cc2)c2ccc(Cl)cc12
123 °C	CCOC(=O)c1c(N2CCN(C(=O)c3cccs3)CC2)c2cccnc2n(Cc2ccc(OC(C)=O)cc2)c1=O
190 to 191 °C	CNC(=O)c1ccc(COCc2csc3nc(C(=O)NCc4cccc(OC)c4)[nH]c(=O)c23)cc1
166 °C	O=C(NC(CO)CO)c1cccc(-c2ccc3c(c2)C(c2cc(Cl)ccc2Cl)CC3)c1 (stereo not drawn)
107 to 111 °C	O=C(O)CN1C(=O)C(NC(=O)[C@@H](S)Cc2ccccc2)CCCc2ccccc21 (stereo partly drawn)
182 °C	CCOC(=O)C1=C(C)NN=C(C(=O)O)C1c1cccc(Cl)c1 (stereo not drawn)
65 to 66 °C	CCOC(=O)c1c(Cl)nc(-c2ccccc2)c([N+](=O)[O-])c1C(=O)OCC
40 to 42 °C	C[C@@H](C(N)=O)c1ccc(NS(C)(=O)=O)c(F)c1
62 °C	CC(C)(C)OC(=O)[C@@H]1C[C@H](c2ccccc2)CN1
107 to 109 °C	COC(=O)CCCc1cc2nc(Cl)ccc2n1S(=O)(=O)c1c(F)cccc1F
110 to 114 °C	O=C(CCC#Cc1ccccn1)Nc1cccc(F)c1
269 to 271 °C	C[C@@H](NC(=O)c1c[nH]c2ncc(-c3nn(C)c4cc(Cl)ccc34)nc12)C(=O)N1CC[C@H](F)C1
334 to 337 °C	O=C(O)c1ccc2nc(-c3ccc(C(=O)NC4CCCCC4)cc3)[nH]c2c1
196 to 199 °C	COC(=O)N(CC(=O)Nc1ccc(S(N)(=O)=O)cc1)c1ccccc1
211 to 212 °C	O=C(O)c1cn(C2CC2)c(-c2ccc3c(c2)OCO3)cc1=O
154 to 156 °C	O=C(NC1(CO)NCC(O)C(O)C1O)c1ccccc1 (stereo not drawn)
143 to 146 °C	O=C(NCCCc1ccncc1)N(C1CCCCC1)C1CCCCC1
220 to 224 °C	CCc1cnc(N2CCC(c3ccc4[nH]c(-c5ccc(S(C)(=O)=O)cc5F)nc4c3)CC2)nc1
171 to 172 °C	CCOC(=O)Cc1ccccc1N[C@@H](CCC(N)=O)C(=O)O
118 to 120 °C	O=C(Nc1ccc(N2CCN(C(=O)Nc3ccc(OCCO)cc3C(F)(F)F)CC2)cc1)Nc1ccccc1OC(F)F
188 °C	CN(C)C(=O)Nc1ccc(Oc2ccc3sncc3c2)c(C(F)(F)F)c1
